Laboratory results taken from US20210137913A1, “THERAPEUTIC AGENT FOR ASPIRATION PNEUMONIA, LUNG SUPPURATION, OR LUNG ABSCESS” (KYORIN PHARMACEUTICAL CO., LTD., priority 2017, published 2021).

Columns and labels:
[1] = system: anaerobic bacteria; settings: Non Patent Literature 2; cited from earlier work
[2] = system: genus Veillonella Veillonella sp.; test: Microbiological efficacy according to the causative bacteria (Aspiration pneumonia); assay type: in vivo; settings: case number 7
Protocol: (§1) The investigational new drug A was administered intravenously for 7 to 14 days to 13 subjects suspected of having aspiration pneumonia meeting the following criteria.
(§2) The patient presents with symptoms and inflammation that are characteristic of aspiration pneumonia. On the first day of the start of administration, two doses of investigational new drug A (300 mg/day) were used, and on the second day of administration, one dose of investigational new drug A (150 mg/day) was used, and then the same dose (150 mg/day) was maintained. The administration of the injection was performed intravenously over about 1 hour per dose.
(§3) Samples for microbiological evaluation were collected before starting an appropriate alternative antibacterial treatment.

[3] = system: genus Prevotella P. buccae; test: as above; assay type: in vivo; settings: case number 1
Protocol: as §1, §2, §3

[4] = system: genus Actinomyces A. odontolyticus; test: as above; assay type: in vivo; settings: case number 1
Protocol: as §1, §2, §3

[5] = system: genus Bacteroides Bacteroides sp.; test: as above; assay type: in vivo; settings: case number 2
Protocol: as §1, §2, §3

[6] = system: genus Prevotella P. intermedia; test: as above; assay type: in vivo; settings: case number 1
Protocol: as §1, §2, §3

[7] = system: genus Prevotella Prevotella sp.; test: as above; assay type: in vivo; settings: case number 6
Protocol: as §1, §2, §3

[8] = system: Anaerobe; test: as above; assay type: in vivo
Protocol: as §1, §2, §3
(§4) Table 4 and Table 5 show the microbiological efficacy of Test Examples 1 and 2 according to the causative bacteria.

[9] = system: genus Parvimonas P. micra; test: as above; assay type: in vivo; settings: case number 1
Protocol: as §1, §2, §3, §4

[10] = system: genus Veillonella Veillonella sp.; test: Microbiological efficacy according to the causative bacteria (Lung suppuration/lung abscess); assay type: in vivo; settings: case number 2
Protocol: (§5) The investigational new drug A was administered intravenously for 7 to 14 days to 11 subjects suspected of having lung suppuration or lung abscess meeting the following criteria.
as §2, with “On” for “The patient presents with symptoms and inflammation that are characteristic of aspiration pneumonia. On”
as §3

[11] = system: genus Prevotella P. melaninogenica; test: as above; assay type: in vivo; settings: case number 1
Protocol: as §5
as §2, with “On” for “The patient presents with symptoms and inflammation that are characteristic of aspiration pneumonia. On”
as §3

[12] = system: genus Prevotella P. oralis; test: as above; assay type: in vivo; settings: case number 1
Protocol: as §5
as §2, with “On” for “The patient presents with symptoms and inflammation that are characteristic of aspiration pneumonia. On”
as §3

[13] = system: genus Fusobacterium F. necrophorum; test: as above; assay type: in vivo; settings: case number 1
Protocol: as §5
as §2, with “On” for “The patient presents with symptoms and inflammation that are characteristic of aspiration pneumonia. On”
as §3

[14] = system: genus Porphyromonas P. gingivalis; test: as above; assay type: in vivo; settings: case number 1
Protocol: as §5
as §2, with “On” for “The patient presents with symptoms and inflammation that are characteristic of aspiration pneumonia. On”
as §3

[15] = system: genus Bacteroide B. fragilis; test: as above; assay type: in vivo; settings: case number 1
Protocol: as §5
as §2, with “On” for “The patient presents with symptoms and inflammation that are characteristic of aspiration pneumonia. On”
as §3

[16] = system: genus Prevotella P. intermedia; test: as above; assay type: in vivo; settings: case number 1
Protocol: as §5
as §2, with “On” for “The patient presents with symptoms and inflammation that are characteristic of aspiration pneumonia. On”
as §3

[17] = system: genus Fusobacterium F. nucleatum; test: as above; assay type: in vivo; settings: case number 4
Protocol: as §5
as §2, with “On” for “The patient presents with symptoms and inflammation that are characteristic of aspiration pneumonia. On”
as §3

[18] = system: genus Prevotella Prevotella sp.; test: as above; assay type: in vivo; settings: case number 1
Protocol: as §5
as §2, with “On” for “The patient presents with symptoms and inflammation that are characteristic of aspiration pneumonia. On”
as §3

[19] = system: genus Leptotrichia Leptotrichia buccalis; test: as above; assay type: in vivo; settings: case number 1
Protocol: as §5
as §2, with “On” for “The patient presents with symptoms and inflammation that are characteristic of aspiration pneumonia. On”
as §3

[20] = system: Anaerobe; test: as above; assay type: in vivo
Protocol: as §5
as §2, with “On” for “The patient presents with symptoms and inflammation that are characteristic of aspiration pneumonia. On”
as §3, §4

[21] = system: genus Parvimonas P. micra; test: as above; assay type: in vivo; settings: case number 2
Protocol: as §5
as §2, with “On” for “The patient presents with symptoms and inflammation that are characteristic of aspiration pneumonia. On”
as §3, §4

[22] = system: subjects suspected of having aspiration pneumonia; test: Test Example 1: clinical efficacy in aspiration pneumonia; assay type: in vivo, human
Protocol: as §1
A clear infiltrative shadow appearing acutely on chest X-rays or CT images taken within 48 hours before the start of administration at the age of 16 years or older, is observed.
Confirmation of clear aspiration, choking or dysphagia, has a disease or history of disease with potential dysphagia.
as §2
(§6) The clinical efficacy of Test Examples 1 and 2 were determined by setting the following criteria, based on the criteria for clinical efficacy of pneumonia described in Clinical evaluation method of new antibacterial drugs in respiratory infections (2nd edition), Japanese Journal of Chemotherapy. 2012; 60(1): 30-45. 9). The primary endpoint was the efficacy rate at the end of administration or discontinuation of investigational new drug A.
(§7) The end of administration herein means the evaluation date on the day after the administration of the investigational new drug A is completed. Moreover, the time of discontinuation means the date on which the evaluation was performed within 3 days from the last administration date or the discontinuation judgment date of the investigational new drug A. Furthermore, “the end of administration or the time of discontinuation” is expressed as End of Treatment (EOT). In addition, CRP is an abbreviation for C-reactive protein, and is one of the acute phase reactants produced in a short time in response to various inflammations. It is a useful index for the observation of therapeutic effects since it increases in a few hours in bacterial infections such as pneumonia and decreases rapidly as the inflammation subsides.
(§8) “Early therapeutic effect” was defined as a case in which significant improvement is observed 3 days after administration (regardless of whether administration was completed or continued after 4 days).
as §3
(§9) In addition, if the discontinuation date is the start date of administration (day 0) or the second day of administration (day 1), the determination of early drug efficacy was regarded as unnecessary. In the case of the third day of administration (day 2) or later, it was determined using the test results at the time of discontinuation.
(§10) When the treatment was discontinued after the next day after the end of the administration, the clinical efficacy at the end of the administration was determined, and the determination of the clinical efficacy at the time of discontinuation was not required. In addition, it was judged as “Ineffective” when the treatment was discontinued or when it was changed to an alternative antibacterial treatment after the end of administration of the investigational new drug. […] When changing to an alternative antibacterial treatment, in principle, prescribed tests, examinations and judgments at the end of treatment were made before the change.
(§11) The efficacy rate is the value obtained by the following formula.
(§12) Efficacy rate=(number of subjects rated as “Effective”[…]number of subjects rated as “Effective” or “Ineffective”)×100(%)

[23] = system: subjects suspected of having lung suppuration or lung abscess; test: Test Example 2: clinical efficacy in lung suppuration or lung abscess; assay type: in vivo, human
Protocol: as §5
On chest X-rays or CT images taken within 48 hours before the start of administration at the age of 16 years or older, a massive shadow or a shadow with cavities inside (nodular shadow, mass shadow) is observed. Regardless of the presence of a niveau due to pus accumulation.
The patient presents with symptoms and inflammation that are characteristic of lung suppuration or lung abscess.
as §2, with “On” for “The patient presents with symptoms and inflammation that are characteristic of aspiration pneumonia. On”
as §6, §7, §8, §3, §9, §10, §11, §12

[24] = aspiration pneumonia, Anaerobe total, case number 19
[25] = lung suppuration/lung abscess, Anaerobe total, case number 16
[26] = Test Example 1, aspiration pneumonia, 3 days after administration, number of subjects
[27] = Test Example 1, aspiration pneumonia, EOT, number of subjects
[28] = conclusion from Table 2 and Table 3
[29] = Test Example 2, lung suppuration or lung abscess, 3 days after administration, number of subjects
[30] = Test Example 2, lung suppuration or lung abscess, EOT, number of subjects

## C[C@H]1COc2c(C3(N)CC3)c(F)cc3c(=O)c(C(=O)O)cn1c23 [pazufloxacin]
[1]
  antibacterial activity against anaerobic bacteria (in words): insufficient antibacterial activity

## COc1c(N2C[C@H](CNC3CC3)[C@H](F)C2)c(F)cc2c(=O)c(C(=O)O)cn(CCF)c12 [investigational new drug A, 7-[(3S,4S)-3-{(cyclopropylamino)methyl}-4-fluoropyrrolidin-1-yl]-6-fluoro-1-(2-fluoroethyl)-8-methoxy-4-oxo-1,4-dihydroquinoline-3-carboxylic acid]
[2]
  Result: Eradicated: 5
  Result: Persisted: 2
[3]
  Result: Eradicated: 1
  Result: Persisted: 0
[4]
  Result: Eradicated: 1
  Result: Persisted: 0
[5]
  Result: Eradicated: 2
  Result: Persisted: 0
[6]
  Result: Eradicated: 1
  Result: Persisted: 0
[7]
  Result: Eradicated: 6
  Result: Persisted: 0
[8]; [24]
  Result: Eradicated: 17
  Result: Persisted: 2
[8]; conclusion from Table 4
  antibacterial effect on the causative bacteria of aspiration pneumonia (in words): high antibacterial effect
[9]
  Result: Eradicated: 1
  Result: Persisted: 0
[10]
  Result: Eradicated: 2
  Result: Persisted: 0
[11]
  Result: Eradicated: 1
  Result: Persisted: 0
[12]
  Result: Eradicated: 1
  Result: Persisted: 0
[13]
  Result: Eradicated: 1
  Result: Persisted: 0
[14]
  Result: Eradicated: 1
  Result: Persisted: 0
[15]
  Result: Eradicated: 1
  Result: Persisted: 0
[16]
  Result: Eradicated: 0
  Result: Persisted: 1
[17]
  Result: Eradicated: 4
  Result: Persisted: 0
[18]
  Result: Eradicated: 1
  Result: Persisted: 0
[19]
  Result: Eradicated: 1
  Result: Persisted: 0
[20]; conclusion from Table 5
  antibacterial effect on the causative bacteria of lung suppuration or lung abscess (in words): high antibacterial effect
[20]; [25]
  Result: Eradicated: 15
  Result: Persisted: 1
[21]
  Result: Eradicated: 2
  Result: Persisted: 0
[22]; Test Example 1, aspiration pneumonia, 13 subjects, i.v. 300 mg day 1 then 150 mg/day, 3 days after administration, number of subjects
  Early drug efficacy evaluation, Clinical efficacy: Effective: 12
[22]; Test Example 1, aspiration pneumonia, 3 days after administration
  Early drug efficacy evaluation: Efficacy rate: 92%
[22]; [26]
  Early drug efficacy evaluation, Clinical efficacy: Ineffective: 1
  Early drug efficacy evaluation, Clinical efficacy: Undeterminable: 0
[22]; Test Example 1, aspiration pneumonia, EOT
  End of Treatment: Efficacy rate: 100%
[22]; Test Example 1, aspiration pneumonia, EOT, listed as 7-[(3S,4S)-3-{(cyclopropylamino)methyl}-4-fluoropyrrolidin-1-yl]-6-fluoro-1-(2-f)
  End of Treatment: Efficacy rate: 100%
[22]; [27]
  End of Treatment, Clinical efficacy: Ineffective: 0
  End of Treatment, Clinical efficacy: Undeterminable: 1
[22]; Test Example 1, aspiration pneumonia, end of administration or discontinuation (EOT), number of subjects
  End of Treatment, Clinical efficacy: Effective: 12
[22]; [28]
  therapeutic effect on aspiration pneumonia (in words): high therapeutic effect
[23]; Test Example 2, lung suppuration or lung abscess, 11 subjects, i.v. 300 mg day 1 then 150 mg/day, 3 days after administration, number of subjects
  Early drug efficacy evaluation, Clinical efficacy: Effective: 9
[23]; Test Example 2, lung suppuration or lung abscess, 3 days after administration
  Early drug efficacy evaluation: Efficacy rate: 82%
[23]; [29]
  Early drug efficacy evaluation, Clinical efficacy: Ineffective: 2
  Early drug efficacy evaluation, Clinical efficacy: Undeterminable: 0
[23]; Test Example 2, lung suppuration or lung abscess, EOT
  End of Treatment: Efficacy rate: 91%
[23]; Test Example 2, lung suppuration or lung abscess, EOT, listed as 7-[(3S,4S)-3-{(cyclopropylamino)methyl}-4-fluoropyrrolidin-1-yl]-6-fluoro-1-(2-f)
  End of Treatment: Efficacy rate: 91%
[23]; [30]
  End of Treatment, Clinical efficacy: Effective: 10
  End of Treatment, Clinical efficacy: Ineffective: 1
  End of Treatment, Clinical efficacy: Undeterminable: 0
[23]; [28]
  therapeutic effect on lung suppuration or lung abscess (in words): high therapeutic effect

## O=C(O)c1cn(C2CC2)c2cc(N3CCNCC3)c(F)cc2c1=O [ciprofloxacin]
[1]
  antibacterial activity against anaerobic bacteria (in words): insufficient antibacterial activity
